Consider 4 molecules from publication PMC13237142, “Proteome-wide quantification of inositol pyrophosphate-protein interactions” (Nature Communications, 2026).

The structures appear in SMILES notation.

For data set [1] the following is noted: in the presence of Mg^2+ ions; cited from earlier work.
The next data set relates to XPR1. As to conditions: compared with InsP6 and 5PP-InsP5; cited from earlier work.
For another data set, the target named is T1, PPIP5K2 (Homo sapiens, UniProt O43314).
T1 construct: endogenous in cells; host or cells: HEK293T cytosolic fraction (Mg2+)
T1 sequence (O43314 1-1243): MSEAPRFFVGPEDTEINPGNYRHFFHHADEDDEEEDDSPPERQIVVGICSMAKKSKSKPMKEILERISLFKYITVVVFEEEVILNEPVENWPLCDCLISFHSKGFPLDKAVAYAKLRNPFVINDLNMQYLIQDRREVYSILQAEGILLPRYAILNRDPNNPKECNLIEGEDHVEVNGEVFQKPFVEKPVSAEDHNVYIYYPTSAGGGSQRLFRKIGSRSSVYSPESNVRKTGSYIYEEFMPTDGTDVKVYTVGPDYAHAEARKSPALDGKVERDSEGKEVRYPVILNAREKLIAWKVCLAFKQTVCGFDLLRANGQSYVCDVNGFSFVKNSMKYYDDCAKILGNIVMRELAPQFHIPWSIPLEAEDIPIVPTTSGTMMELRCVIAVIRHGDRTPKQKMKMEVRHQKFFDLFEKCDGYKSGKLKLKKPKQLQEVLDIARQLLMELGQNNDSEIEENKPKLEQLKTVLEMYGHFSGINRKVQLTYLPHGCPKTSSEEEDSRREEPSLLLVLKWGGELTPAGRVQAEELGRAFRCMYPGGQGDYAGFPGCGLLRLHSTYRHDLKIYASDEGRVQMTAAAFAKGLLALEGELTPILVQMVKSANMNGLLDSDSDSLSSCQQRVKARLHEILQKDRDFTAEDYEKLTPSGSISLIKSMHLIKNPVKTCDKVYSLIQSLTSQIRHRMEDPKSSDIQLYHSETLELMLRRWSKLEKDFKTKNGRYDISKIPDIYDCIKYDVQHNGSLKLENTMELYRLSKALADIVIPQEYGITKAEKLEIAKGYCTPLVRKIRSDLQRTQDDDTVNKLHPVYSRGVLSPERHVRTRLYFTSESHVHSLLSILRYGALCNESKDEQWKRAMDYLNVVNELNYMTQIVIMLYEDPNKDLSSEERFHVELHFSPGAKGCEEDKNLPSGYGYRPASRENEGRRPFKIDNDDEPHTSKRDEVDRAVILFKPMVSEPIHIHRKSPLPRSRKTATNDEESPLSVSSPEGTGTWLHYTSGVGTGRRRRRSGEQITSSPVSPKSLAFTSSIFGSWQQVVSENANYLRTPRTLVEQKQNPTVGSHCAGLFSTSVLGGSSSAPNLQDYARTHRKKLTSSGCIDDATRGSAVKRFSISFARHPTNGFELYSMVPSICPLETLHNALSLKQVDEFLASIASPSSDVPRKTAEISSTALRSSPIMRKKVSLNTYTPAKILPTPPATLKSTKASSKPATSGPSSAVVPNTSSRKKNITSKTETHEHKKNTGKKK
The experiment in a line: KDapp by affinity enrichment/TMT-MS. It is filed as binding. The note with it: in the presence of Mg^2+ ions, cytosolic dataset.

In another data set the target is T2, PDAP1 (Homo sapiens, UniProt Q13442).
T2 construct: endogenous in cells; host or cells: HEK293T cytosolic fraction
T2 sequence (Q13442 1-181): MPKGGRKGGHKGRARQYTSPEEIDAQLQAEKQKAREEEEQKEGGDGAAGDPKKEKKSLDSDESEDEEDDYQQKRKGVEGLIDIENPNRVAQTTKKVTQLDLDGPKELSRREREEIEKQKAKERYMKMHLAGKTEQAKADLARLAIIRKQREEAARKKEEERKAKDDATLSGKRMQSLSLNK
The experiment in a line: KDapp by affinity enrichment/TMT-MS. The class given is binding. As to conditions: Mg^2+(cyto) HEK293T lysate; read-out: KD^app.

Data set [2] has as its system proteins of HEK293T cell lysates (cytosolic/nuclear, EDTA/Mg2+). Description: Proteome-wide KDapp, all four lysate preparations together. The note with it: Mg^2+ ions present; read-out: KD^app values of the top 50 proteins. The class given is binding, human.
Another data set deals with T3, POLR2I (Homo sapiens, UniProt P36954).
T3 construct: endogenous in cells; host or cells: HEK293T lysate fraction
The experiment in a line: KDapp by affinity enrichment/TMT-MS. The note with it: binding curve, Supplementary Fig. 9.

The next data set has as its target T4, MMTAG2 (Homo sapiens, UniProt Q9BU76).
T4 construct: endogenous in cells; host or cells: HEK293T nuclear fraction (Mg2+)
The experiment in a line: KDapp by affinity enrichment/TMT-MS. The class given is binding. As to conditions: Mg^2+nucl HEK293T lysate; read-out: KD^app.

In another data set the target is T5, PMVK (Homo sapiens, UniProt Q15126).
T5 construct: 6xHis (N, cleaved yes); V5 (N, cleaved yes); made in house; host or cells: E. coli BL21 (DE3)
T5 sequence (Q15126 1-192): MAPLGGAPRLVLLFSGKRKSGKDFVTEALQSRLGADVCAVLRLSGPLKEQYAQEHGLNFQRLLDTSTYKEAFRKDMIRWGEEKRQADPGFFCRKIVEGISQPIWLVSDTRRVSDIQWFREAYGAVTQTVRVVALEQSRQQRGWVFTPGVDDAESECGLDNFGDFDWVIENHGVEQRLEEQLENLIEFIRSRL
Description: Isothermal titration calorimetry with recombinant PMVK. The class given is binding. As to conditions: ITC, 25 °C, 50 μM protein, 500 μM ligand, buffer pH 7.4 with 1 mM MgCl2; triplicate.

T4 sequence (Q9BU76 whole entry): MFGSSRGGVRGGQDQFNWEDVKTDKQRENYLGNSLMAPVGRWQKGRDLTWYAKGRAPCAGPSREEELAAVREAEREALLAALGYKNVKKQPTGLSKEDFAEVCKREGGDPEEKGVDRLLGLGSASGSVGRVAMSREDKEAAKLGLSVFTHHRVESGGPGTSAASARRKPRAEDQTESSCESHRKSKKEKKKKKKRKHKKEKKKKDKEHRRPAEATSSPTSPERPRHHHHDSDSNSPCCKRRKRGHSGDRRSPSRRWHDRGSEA
Description for MMTAG2: (§1) Cells were lysed using two different lysis buffers (containing either 1 mM EDTA or containing 1 mM Mg^2+), and the lysates were separated into nuclear and cytosolic fractions to provide deeper proteome coverage (Supplementary Fig. 8). […] Following quick washing steps, the retained proteins were eluted with an excess of the corresponding free ligand. The samples were digested with trypsin, followed by 11-plex TMT isobaric labeling, subsequent sample pooling, and LC-MS/MS analysis. To ensure robustness of the datasets, the experiments were performed in biological triplicates, and only proteins fully quantified in at least two replicates were further analyzed. […] In addition, model validity was assessed by an F-test comparing the Hill-like fit to a null model, and only proteins with statistically significant fits (p ≤ 0.05) were considered. Furthermore, a cutoff of log2 fold-change ≥ 1 between the endpoints was applied (Supplementary Data 1).
(§2) Cells were washed twice with ice-cold 0.9 mM NaCl in H2O (10 mL), carefully scraped off, added to protein low-binding microcentrifuge tubes, and ice-cold PBS (1 mL) was added. The cells were pelleted for 2 min, 250 g at 4 °C, and the supernatant was removed. The pellet was washed twice with ice-cold PBS (1 mL), the supernatant was removed, and the pellet was kept on ice. […]
Description for PDAP1: as §1, §2
Description for PMVK: Protein stocks were subjected to buffer exchange using final buffer conditions: 25 mM HEPES, pH 7.4, 150 mM KCl, 1 mM MgCl2, 40 mM NaCl, 0.5 mM TCEP (ITC buffer). The exact protein concentration was determined by BCA assay and adjusted to 50 μM. […] ITC experiments were carried out at 25 °C in a MicroCal PEAQ-ITC calorimeter (Malvern Panalytical GmbH, Kassel, Germany), with ca. 50 μM protein in the cell and 500 μM ligand in the syringe. InsPs were titrated into the solution in nineteen 2 μL-steps. Spacing between injections was 150 s. The corresponding instrument software (MicroCal PEAQ-ITC Analysis) was used for baseline correction, peak integration, data fitting and determination of binding parameters. All experiments were carried out in triplicate.
Description for PPIP5K2: as §1, §2

For the molecule `O=P(O)(O)O[C@@H]1[C@@H](OP(=O)(O)O)[C@H](OP(=O)(O)OP(=O)(O)O)[C@@H](OP(=O)(O)O)[C@H](OP(=O)(O)OP(=O)(O)O)[C@@H]1OP(=O)(O)O` [1,5(PP)2-InsP4, bis-1,5-diphosphoinositol tetrakisphosphate], the “fraction adopting the flipped conformation” value in data set [1] was around 30%. Further, the “in vitro binding affinity to XPR1” value in the data set with XPR1 is reported as “highest”.

In the case of `O=C(CCCC[C@@H]1SC[C@@H]2NC(=O)N[C@@H]21)NCCOCCOCCOCCOCCOP(=O)(O)O[C@@H]1[C@@H](OP(=O)(O)O)[C@H](OP(=O)(O)CP(=O)(O)O)[C@@H](OP(=O)(O)O)[C@H](OP(=O)(O)CP(=O)(O)O)[C@@H]1OP(=O)(O)O` [b-1,5(PCP)2-InsP4], the “binding to PPIP5K2 (binding curves)” value at PPIP5K2 is listed as “tight binding”. In addition, the Kd on PDAP1 was 0.6 µM; in data set [2], below 1 µM; at MMTAG2, 1.9 µM. Besides, the “binding to POLR2I” value on POLR2I was “strong binding”.

Consider `O=P(O)(O)O[C@H]1[C@@H](OP(=O)(O)O)[C@H](OP(=O)(O)O)[C@@H](OP(=O)(O)OP(=O)(O)O)[C@H](OP(=O)(O)O)[C@H]1OP(=O)(O)O` [5PP-InsP5, 5-diphosphoinositol pentakisphosphate], for which the Kd on PMVK came to 9.5 ± 1 µM.

For the molecule `O=P(O)(O)O[C@H]1[C@H](OP(=O)(O)O)[C@@H](OP(=O)(O)O)[C@H](OP(=O)(O)O)[C@@H](OP(=O)(O)O)[C@H]1OP(=O)(O)O` [InsP6, inositol hexakisphosphate], the Kd on PMVK was 4 ± 0.3 µM.
